# From patent publication US6001850A, “Thienopyridine derivatives, their production and use” (Takeda Chemical Industries, Ltd., priority 1996, dated 1999)
# Target: T1, human GnRH receptor (Homo sapiens, UniProt P30968)
# T1 construct: expressed in transfected cells; host or cells: CHO (Chinese Hamster Ovary) cells, membrane fraction
# T1 sequence (P30968 1-328): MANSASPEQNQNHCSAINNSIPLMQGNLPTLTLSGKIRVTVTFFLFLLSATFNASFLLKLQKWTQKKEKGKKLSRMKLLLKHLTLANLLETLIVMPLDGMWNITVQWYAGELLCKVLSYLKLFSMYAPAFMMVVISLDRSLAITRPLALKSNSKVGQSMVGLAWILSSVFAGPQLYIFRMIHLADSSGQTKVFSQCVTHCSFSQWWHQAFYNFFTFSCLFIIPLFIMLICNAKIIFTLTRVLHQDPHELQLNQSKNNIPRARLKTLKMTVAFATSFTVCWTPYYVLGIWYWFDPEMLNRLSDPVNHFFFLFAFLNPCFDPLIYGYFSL
# Experiment: Determination of inhibitory rate of 125I-leuprorelin binding (membrane fraction of CHO cells expressing human GnRH receptors)
# Conditions: CHO cell membrane expressing human GnRH receptors, 25° C., 60 minutes, Hill plot
# Protocol: (1)Preparation of ^125 I-leuprorelin:
# Ten μl of 3×10^-4 M aqueous solution of leuprorelin and 10 μl of 0.01 mg/ml lactoperoxidase in 0.1M HEPES buffer (pH 7.4) were taken into a tube, to which was added 10 μl (37 MBq in 0.1 M HEPES buffer (pH7.4)) of an Na^125 I solution. The mixture was stirred, to which was added 10 μl of 0.001% H2O2, then reaction was allowed to proceed for 20 minutes at room temperature. To the reaction mixture was added 700 μl of a 0.05% TFA solution to cease the reaction. The product was purified by means of reversed phase HPLC. Conditions of HPLC are as follows. ^125 I-leuprorelin was eluted at a retention time of 26 to 27 minutes.
# (2) Preparation of membrane fraction of CHO (Chinese Hamster Ovary) cells containing human GnRH receptors
# CHO cells (10^9) expressing human GnRH receptors were suspended in a phosphate-buffered saline supplemented with 5 mM EDTA (ethylenediamine tetraacetate) (PBS-EDTA). […]
# The reaction was allowed to proceed at 25° C. for 60 minutes. […] After completion of the filtration, radioactivity of the ^125 I-leuprorelin remaining on the filter paper was measured with a γ-counter.
# By calculation of the following formula, the binding inhibitory rate (PMB, %) of each test compound was determined.
# TB: Maximum binding radioactivity.
# SB: Radioactivity obtained when a compound was added. […]
compound,measurement,value
"C=C(C)COc1ccc(-c2sc3c(c2CN(C)Cc2ccccc2)c(=O)c(C(=O)C(C)C)cn3Cc2c(F)cccc2F)cc1 [Example 3(4), 2-[4-(2-methyl-2-propen-1-yl-oxy)phenyl]-4,7-dihydro-7-(2,6-difluorobenzyl)-3-(N-benzyl-N-methylaminomethyl)-5-isobutyryl-4-oxothieno[2,3-b]pyridine]",IC50,10 nM
